Assay results: PubChem BioAssay (NCI)
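Results reflect a 48-hour exposure of cells in 96-well plates to compound at five concentrations. At the GI50, growth is halved. TGI marks complete inhibition of growth.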

Tests used:
Assay in all cases: NCI-60 cell line screen, 48 h
[1] = test system: SF-268 CNS
[2] = test system: NCI-H23 lung
[3] = test system: U251 CNS
[4] = test system: OVCAR-5 ovarian
[5] = test system: NCI-H522 lung
[6] = test system: UO-31 renal
[7] = test system: TK-10 renal
[8] = test system: PC-3 prostate
[9] = test system: MDA-MB-231 breast
[10] = test system: EKVX NSCLC
[11] = test system: A549 NSCLC
[12] = test system: SNB-75 CNS
[13] = test system: IGROV1 ovarian
[14] = test system: KM12 colon
[15] = test system: HS 578T breast
[16] = test system: HCT-15 colon
[17] = test system: OVCAR-4 ovarian
[18] = test system: OVCAR-8 ovarian
[19] = test system: SNB-19 CNS
[20] = test system: SK-MEL-2 melanoma
[21] = test system: T-47D breast
[22] = test system: SK-MEL-28 melanoma
[23] = test system: NCI/ADR-RES ovarian
[24] = test system: CAKI-1 renal
[25] = test system: HL-60(TB) leukemia
[26] = test system: M14 melanoma
[27] = test system: HCC-2998 colon
[28] = test system: ACHN renal
[29] = test system: RXF 393 renal
[30] = test system: SK-OV-3 ovarian
[31] = test system: RPMI-8226 leukemia
[32] = test system: SR leukemia
[33] = test system: SK-MEL-5 melanoma
[34] = test system: NCI-H460 lung
[35] = test system: COLO 205 colon
[36] = test system: BT-549 breast
[37] = test system: HCT-116 colon
[38] = test system: OVCAR-3 ovarian
[39] = test system: K-562 leukemia
[40] = test system: SN12C renal
[41] = test system: DU-145 prostate
[42] = test system: MDA-MB-435
[43] = test system: UACC-62 melanoma
[44] = test system: HOP-62 NSCLC
[45] = test system: SW-620 colon
[46] = test system: UACC-257 melanoma
[47] = test system: MCF7 breast
[48] = test system: HOP-92 NSCLC
[49] = test system: SF-539 CNS
[50] = test system: 786-0 renal
[51] = test system: SF-295 CNS
[52] = test system: A498 renal
[53] = test system: MALME-3M melanoma
[54] = test system: HT29 colon
[55] = test system: NCI-H226 lung
[56] = test system: CCRF-CEM leukemia
[57] = test system: LOX IMVI melanoma

With C=C(CN1CCN(c2ccccn2)CC1)c1ccc(C(=O)Nc2ccccc2N)cc1 the GI50 [1] was 1.66 µM, the TGI [1] was 9.22 µM and the GI50 [2] was 0.939 µM. For the same compound, the TGI [2] was 2.44 µM, the GI50 [3] was 1.48 µM and the TGI [3] was over 50 µM. It also gave a GI50 [4] of 6.1 µM, a TGI [4] of 26.4 µM and a GI50 [5] of 1.56 µM. It also gave a TGI [5] of 9.36 µM, a GI50 [6] of 1.8 µM and a TGI [6] of 7.57 µM. It also gave a GI50 [7] of 1.85 µM, a TGI [7] of 8.23 µM and a GI50 [8] of 3.78 µM. It also gave a TGI [8] of over 50 µM, a GI50 [9] of 2.17 µM and a TGI [9] of over 50 µM. The GI50 [10] was 5.33 µM, the TGI [10] was over 50 µM and the GI50 [11] was 2.4 µM. The TGI [11] was 37.3 µM, the GI50 [12] was 1.48 µM and the TGI [12] was 4.68 µM. It also gave a GI50 [13] of 1.57 µM, a TGI [13] of 37.8 µM and a GI50 [14] of 0.936 µM. For the same compound, the TGI [14] was 3.12 µM, the GI50 [15] was 1.11 µM and the TGI [15] was 6.28 µM. It also gave a GI50 [16] of 1.91 µM, a TGI [16] of over 50 µM and a GI50 [17] of 6.35 µM. It also gave a TGI [17] of over 50 µM, a GI50 [18] of 1.5 µM and a TGI [18] of over 50 µM. The GI50 [19] was 4.87 µM, the TGI [19] was 29.7 µM and the GI50 [20] was 1.87 µM. The TGI [20] was over 50 µM, the GI50 [21] was 1.23 µM and the TGI [21] was 20.9 µM. For the same compound, the GI50 [22] was 2.52 µM, the TGI [22] was over 50 µM and the GI50 [23] was 1.31 µM. For the same compound, the TGI [23] was 5.05 µM, the GI50 [24] was 1.19 µM and the TGI [24] was 5.03 µM. For the same compound, the GI50 [25] was 2.2 µM, the TGI [25] was over 50 µM and the GI50 [26] was 8.48 µM. It also gave a TGI [26] of over 50 µM, a GI50 [27] of 0.664 µM and a TGI [27] of 1.94 µM. For the same compound, the GI50 [28] was 1.5 µM, the TGI [28] was over 50 µM and the GI50 [29] was 1.55 µM. The TGI [29] was 13 µM, the GI50 [30] was 1.3 µM and the TGI [30] was 4.44 µM. It also gave a GI50 [31] of 1.6 µM, a TGI [31] of over 50 µM and a GI50 [32] of 5.33 µM. For the same compound, the TGI [32] was over 50 µM, the GI50 [33] was 0.726 µM and the TGI [33] was 1.75 µM. For the same compound, the GI50 [34] was 2.81 µM, the TGI [34] was over 50 µM and the GI50 [35] was 1.71 µM. The TGI [35] was 5.74 µM, the GI50 [36] was 3.95 µM and the TGI [36] was 37.4 µM. The GI50 [37] was 2.5 µM, the TGI [37] was 32.1 µM and the GI50 [38] was 1.25 µM. It also gave a TGI [38] of 4.39 µM, a GI50 [39] of 0.956 µM and a TGI [39] of over 50 µM. For the same compound, the GI50 [40] was 2.35 µM, the TGI [40] was over 50 µM and the GI50 [41] was 2.52 µM. The TGI [41] was 18.5 µM, the GI50 [42] was 0.522 µM and the TGI [42] was 1.4 µM. For the same compound, the GI50 [43] was 1.41 µM, the TGI [43] was 9.99 µM and the GI50 [44] was 1.32 µM. For the same compound, the TGI [44] was over 50 µM, the GI50 [45] was 1.71 µM and the TGI [45] was over 50 µM. The GI50 [46] was 2.32 µM, the TGI [46] was over 50 µM and the GI50 [47] was 3.15 µM. For the same compound, the TGI [47] was over 50 µM, the GI50 [48] was 5.7 µM and the TGI [48] was 23.1 µM. For the same compound, the GI50 [49] was 1.5 µM, the TGI [49] was 8.87 µM and the GI50 [50] was 1.2 µM. It also gave a TGI [50] of 8.15 µM, a GI50 [51] of 1.39 µM and a TGI [51] of 6.52 µM.

In the case of CSC(=S)NCc1cn(C)c2ccccc12, the GI50 [1] is reported as 23.5 µM, the TGI [1] is reported as 68 µM and the GI50 [2] is reported as 29.8 µM. The TGI [2] was 87.7 µM, the GI50 [3] was 28.6 µM and the TGI [3] was over 100 µM. It also gave a GI50 [4] of 44.1 µM, a TGI [4] of over 100 µM and a GI50 [5] of 21.5 µM. For the same compound, the TGI [5] was 86.1 µM, the GI50 [6] was 22.3 µM and the TGI [6] was over 100 µM. The GI50 [7] was 28.7 µM, the TGI [7] was over 100 µM and the GI50 [8] was 33 µM. For the same compound, the TGI [8] was over 100 µM, the GI50 [9] was 15.4 µM and the TGI [9] was 44.5 µM. For the same compound, the GI50 [10] was 32 µM, the TGI [10] was over 100 µM and the GI50 [11] was 38.1 µM. For the same compound, the TGI [11] was over 100 µM, the GI50 [12] was 51.4 µM and the TGI [12] was over 100 µM. It also gave a GI50 [52] of 12.8 µM, a TGI [52] of 29.2 µM and a GI50 [53] of 24.6 µM. For the same compound, the TGI [53] was 92.4 µM, the GI50 [13] was 26.1 µM and the TGI [13] was over 100 µM. It also gave a GI50 [14] of 33.1 µM, a TGI [14] of over 100 µM and a GI50 [15] of 26.3 µM. The TGI [15] was 73.6 µM, the GI50 [16] was 26.8 µM and the TGI [16] was over 100 µM. The GI50 [17] was 62 µM, the TGI [17] was over 100 µM and the GI50 [18] was 24.2 µM. For the same compound, the TGI [18] was 90.6 µM, the GI50 [19] was 40.3 µM and the TGI [19] was over 100 µM. It also gave a GI50 [20] of 34.2 µM, a TGI [20] of over 100 µM and a GI50 [21] of 29.5 µM. For the same compound, the TGI [21] was over 100 µM, the GI50 [22] was over 100 µM and the TGI [22] was over 100 µM. For the same compound, the GI50 [23] was 30 µM, the TGI [23] was over 100 µM and the GI50 [24] was 20.8 µM. It also gave a TGI [24] of 61.3 µM, a GI50 [26] of 64.8 µM and a TGI [26] of over 100 µM. The GI50 [54] was 65.3 µM, the TGI [54] was over 100 µM and the GI50 [27] was 25.1 µM. For the same compound, the TGI [27] was 98.7 µM, the GI50 [55] was 23.4 µM and the TGI [55] was 64.8 µM. The GI50 [28] was 21.9 µM, the TGI [28] was over 100 µM and the GI50 [29] was 17.9 µM. The TGI [29] was 59.6 µM, the GI50 [30] was 30.2 µM and the TGI [30] was over 100 µM. The GI50 [31] was 30.7 µM, the TGI [31] was over 100 µM and the GI50 [33] was 13.9 µM. The TGI [33] was 32.8 µM, the GI50 [34] was 29.4 µM and the TGI [34] was over 100 µM. The GI50 [56] was 24.4 µM, the TGI [56] was over 100 µM and the GI50 [35] was 17.5 µM. It also gave a TGI [35] of 65.9 µM, a GI50 [57] of 26.5 µM and a TGI [57] of 94.1 µM. It also gave a GI50 [36] of 20 µM, a TGI [36] of 54.2 µM and a GI50 [37] of 50.5 µM. The TGI [37] was over 100 µM, the GI50 [38] was 23.4 µM and the TGI [38] was 80.4 µM. For the same compound, the GI50 [40] was 26.9 µM, the TGI [40] was 80.8 µM and the GI50 [41] was 29.1 µM. The TGI [41] was over 100 µM, the GI50 [42] was 27.8 µM and the TGI [42] was over 100 µM. It also gave a GI50 [43] of 20.1 µM, a TGI [43] of 42.7 µM and a GI50 [44] of 49.4 µM. For the same compound, the TGI [44] was over 100 µM, the GI50 [45] was 30.1 µM and the TGI [45] was over 100 µM. For the same compound, the GI50 [46] was 54.8 µM, the TGI [46] was over 100 µM and the GI50 [47] was 24.3 µM. The TGI [47] was 90.9 µM, the GI50 [48] was 23.9 µM and the TGI [48] was over 100 µM. The GI50 [49] was 25 µM, the TGI [49] was 62.3 µM and the GI50 [50] was 24.8 µM. For the same compound, the TGI [50] was over 100 µM, the GI50 [51] was 33.5 µM and the TGI [51] was over 100 µM.
